Test results: patent US20220370468A1, “Methods of treating sleep disorders associated with pain” (Astellas Pharma Global Development, Inc., priority 2019, published 2022)

Experiments:
[1] = system: patients with fibromyalgia; assay: Phase 2a study: daily fibromyalgia sleep diary (FMSD); type: in vivo, human; conditions: for Degree of being rested when waking up for the day, change from baseline, LS Mean (SE) / Degree of deep sleep, change from baseline, LS Mean (SE) / Degree of having enough sleep during the previous night, change from baseline, LS Mean (SE) / Difficulty getting comfortable, change from baseline, LS Mean (SE) / Difficulty staying asleep, change from baseline, LS Mean (SE) / Difficulty with beginning the day, change from baseline, LS Mean (SE) / Difficulty with falling asleep, change from baseline, LS Mean (SE) / Restlessness of sleep, change from baseline, LS Mean (SE): FAS, 15 mg
Text: In some embodiments, the clinical score is a score for one or more FMSD (fibromyalgia sleep diary) items. The FMSD (Kleinman et al., 2014) is a validated 8-item patient-reported outcome that assesses sleep disturbances specific to patients with fibromyalgia across the domains of falling asleep, staying asleep, and sufficient sleep (Kleinman et al., 2014). Each day upon waking, patients rated their sleep quality over the previous night on an 11-point numerical integer rating scale (NRS). Each item is rated on an 11-point NRS, ranging from 0, which corresponds to “not at all”, to 10, which corresponds to “extremely.” FMSD items include: • difficulty with falling asleep (improvement shown as a decrease in measurement); • restlessness of sleep (improvement shown as a decrease in measurement); • difficulty getting comfortable (improvement shown as a decrease in measurement); • difficulty staying asleep (improvement shown as a decrease in measurement); • degree of deep sleep (improvement shown as an increase in measurement); • degree of being rested when waking up for the day (improvement shown as an increase in measurement); • difficulty with beginning the day (improvement shown as a decrease in measurement); and • degree of having enough sleep during the previous night (improvement shown as an increase in measurement). A phase 2a, randomized, double-blind, placebo-controlled, parallel group study was conducted at 24 sites in the United States to assess the analgesic efficacy and safety of the compound of Formula (I) in patients with fibromyalgia. The study consisted of the following: a screening period of up to 42 days, which included a washout period and a 7-day baseline diary run-in; a 57-day double-blind randomized treatment period with site visits at Days 1, 15, 29, and 57; and a 4-week follow-up period consisting of a clinic visit after 2 weeks and a phone call after 4 weeks. The study was carried out in accordance with the Declaration of Helsinki and approved by the relevant Institutional Review Boards. All participants provided written informed consent prior to the initiation of any study procedures. Male and female patients aged 18 to 80 years were included in the trial if they met the American College of Rheumatology (ACR) 1990 and 2010 fibromyalgia diagnostic criteria at screening (Wolfe et al., 1990; Wolfe et al., 2010b). The core diagnostic criteria for fibromyalgia are defined by the 1990 criteria (Wolfe et al., 1990), and while ACR has published newer criteria, the 1990 version is still commonly utilized in clinical trials. To meet ACR 1990 criteria, patients must have had widespread pain for at least 3 months, defined as the presence of pain on the right and left sides of the body, pain above and below the waist, and pain in the axial skeleton (cervical spine, anterior chest, thoracic spine, or low back) (Wolfe et al., 1990). They must also have had pain in at least 11 of 18 tender point sites on digital palpation performed with an approximate force of 4 kg. To meet the ACR 2010 criteria, patients needed to have a widespread pain index (WPI) score of ≥7 and a symptom severity (SS) scale score ≥5, or a WPI score 3-6 and an SS scale score ≥9 (Wolfe et al., 2010b). Symptoms must have been present at a similar level for at least 3 months and patients must have been free of any other disorder that could have explained the pain. […] Eligible patients were randomized 1:1 using Interactive Response Technology to receive oral Compound of Formula (I) 15 mg (three capsules of 5 mg) or matching placebo capsules, each given once daily in the morning, with or without food, for 8 weeks. Sleep disturbance was assessed as an exploratory endpoint using change from baseline to each respective week (Weeks 1-8) and from baseline to EOT in daily fibromyalgia sleep diary (FMSD) responses (Kleinman et al., 2014). […]

[2] = target: Kca3.1 potassium ion channel (Homo sapiens, UniProt O15554); assay: Kca3.1 channel activity (stated mechanism); type: biochemical
[3] = Nonclinical studies: brain penetration and ADME profile
[4] = Nonclinical studies: toxicological profile

action on Kca3.1 potassium ion channel [2]: opener
brain penetration ([3]; nonclinical): poor brain penetration
absorption, distribution, metabolism, and excretion (ADME) profile ([3]; nonclinical studies): acceptable
SMILES: Cc1sc2cc(Cl)ccc2c1-c1ccc(N2CCO[C@H](CNC3CCC3)C2)c(C(=O)O)c1 [Compound of Formula (I)]
Difficulty with falling asleep, Treatment Difference (SE) (Compound of Formula (I) - placebo) ([1]; EOT (LOCF), ANCOVA, 1-sided p 0.008): −0.61 (0.25)
Restlessness of sleep, Treatment Difference (SE) (Compound of Formula (I) - placebo) ([1]; EOT (LOCF), ANCOVA, 1-sided p 0.009): −0.56 (0.23)
Difficulty with beginning the day, Treatment Difference (SE) (Compound of Formula (I) - placebo) ([1]; EOT (LOCF), ANCOVA, 1-sided p 0.044): −0.42 (0.25)
Difficulty getting comfortable, Treatment Difference (SE) (Compound of Formula (I) - placebo) ([1]; EOT (LOCF), ANCOVA, 1-sided p 0.054): −0.35 (0.22)
Degree of having enough sleep during the previous night, Treatment Difference (SE) (Compound of Formula (I) - placebo) ([1]; EOT (LOCF), ANCOVA, 1-sided p 0.100): 0.32 (0.25)
Difficulty staying asleep, Treatment Difference (SE) (Compound of Formula (I) - placebo) ([1]; EOT (LOCF), ANCOVA, 1-sided p 0.158): −0.22 (0.22)
Degree of deep sleep, Treatment Difference (SE) (Compound of Formula (I) - placebo) ([1]; EOT (LOCF), ANCOVA, 1-sided p 0.240): 0.16 (0.22)
Degree of being rested when waking up for the day, Treatment Difference (SE) (Compound of Formula (I) - placebo) ([1]; EOT (LOCF), ANCOVA, 1-sided p 0.337): 0.10 (0.24)
Degree of being rested when waking up for the day, change from baseline, LS Mean (SE) ([1]; EOT (LOCF), ANCOVA): 0.78 (0.17)
Degree of deep sleep, change from baseline, LS Mean (SE) ([1]; EOT (LOCF), ANCOVA): 0.60 (0.16)
Degree of having enough sleep during the previous night, change from baseline, LS Mean (SE) ([1]; EOT (LOCF), ANCOVA): 1.09 (0.18)
Difficulty getting comfortable, change from baseline, LS Mean (SE) ([1]; EOT (LOCF), ANCOVA): −1.27 (0.16)
Difficulty staying asleep, change from baseline, LS Mean (SE) ([1]; EOT (LOCF), ANCOVA): −1.08 (0.16)
Difficulty with beginning the day, change from baseline, LS Mean (SE) ([1]; EOT (LOCF), ANCOVA): −0.91 (0.18)
Difficulty with falling asleep, change from baseline, LS Mean (SE) ([1]; EOT (LOCF), ANCOVA): −1.41 (0.18)
Restlessness of sleep, change from baseline, LS Mean (SE) ([1]; EOT (LOCF), ANCOVA): −1.50 (0.17)
Difficulty with falling asleep, Treatment Difference (SE) (Compound of Formula (I) - placebo) ([1]; Week 8, MMRM, 1-sided p 0.018): −0.56 (0.26)
Restlessness of sleep, Treatment Difference (SE) (Compound of Formula (I) - placebo) ([1]; Week 8, MMRM, 1-sided p 0.033): −0.48 (0.26)
Difficulty with beginning the day, Treatment Difference (SE) (Compound of Formula (I) - placebo) ([1]; Week 8, MMRM, 1-sided p 0.070): −0.39 (0.26)
Degree of having enough sleep during the previous night, Treatment Difference (SE) (Compound of Formula (I) - placebo) ([1]; Week 8, MMRM, 1-sided p 0.131): 0.30 (0.27)
Difficulty getting comfortable, Treatment Difference (SE) (Compound of Formula (I) - placebo) ([1]; Week 8, MMRM, 1-sided p 0.167): −0.23 (0.23)
Difficulty staying asleep, Treatment Difference (SE) (Compound of Formula (I) - placebo) ([1]; Week 8, MMRM, 1-sided p 0.275): −0.14 (0.24)
Degree of deep sleep, Treatment Difference (SE) (Compound of Formula (I) - placebo) ([1]; Week 8, MMRM, 1-sided p 0.331): 0.11 (0.24)
Degree of being rested when waking up for the day, Treatment Difference (SE) (Compound of Formula (I) - placebo) ([1]; Week 8, MMRM, 1-sided p 0.432): 0.04 (0.25)
Degree of being rested when waking up for the day, change from baseline, LS Mean (SE) ([1]; Week 8, MMRM): 0.74 (0.18)
Degree of deep sleep, change from baseline, LS Mean (SE) ([1]; Week 8, MMRM): 0.55 (0.17)
Degree of having enough sleep during the previous night, change from baseline, LS Mean (SE) ([1]; Week 8, MMRM): 1.10 (0.19)
Difficulty getting comfortable, change from baseline, LS Mean (SE) ([1]; Week 8, MMRM): −1.24 (0.17)
Difficulty staying asleep, change from baseline, LS Mean (SE) ([1]; Week 8, MMRM): −1.09 (0.17)
Difficulty with beginning the day, change from baseline, LS Mean (SE) ([1]; Week 8, MMRM): −0.89 (0.19)
Difficulty with falling asleep, change from baseline, LS Mean (SE) ([1]; Week 8, MMRM): −1.46 (0.19)
Restlessness of sleep, change from baseline, LS Mean (SE) ([1]; Week 8, MMRM): −1.53 (0.19)
FMSD difficulty with falling asleep versus placebo ([1]; beginning at Week 2, P=0.032): Statistically significant improvements
FMSD difficulty getting comfortable versus placebo ([1]; beginning at Week 3, P=0.007): Statistically significant improvements
FMSD difficulty staying asleep versus placebo ([1]; beginning at Week 3, P=0.013): Statistically significant improvements
FMSD restlessness of sleep versus placebo ([1]; beginning at Week 3, P=0.013): Statistically significant improvements
FMSD degree of deep sleep versus placebo ([1]; beginning at Week 6, P=0.035): Statistically significant improvements
FMSD difficulty with beginning the day versus placebo ([1]; beginning at Week 6, P=0.040): Statistically significant improvements
toxicological profile [4]: acceptable toxicological profile
